# Test results reported in BindingDB's records for doi:10.7270/Q2PZ576Z (The Scripps Research Institute Molecular Screening Center, 2007).
# Target: Sphingosine 1-phosphate receptor 3 (Homo sapiens, UniProt Q99500)
# Assay: S1P3 receptor activation, EC50 – cell-based, NFAT-BLA reporter, dose response (AID 439)
# Details: not given
# Sequence of Sphingosine 1-phosphate receptor 3 (Q99500 whole entry): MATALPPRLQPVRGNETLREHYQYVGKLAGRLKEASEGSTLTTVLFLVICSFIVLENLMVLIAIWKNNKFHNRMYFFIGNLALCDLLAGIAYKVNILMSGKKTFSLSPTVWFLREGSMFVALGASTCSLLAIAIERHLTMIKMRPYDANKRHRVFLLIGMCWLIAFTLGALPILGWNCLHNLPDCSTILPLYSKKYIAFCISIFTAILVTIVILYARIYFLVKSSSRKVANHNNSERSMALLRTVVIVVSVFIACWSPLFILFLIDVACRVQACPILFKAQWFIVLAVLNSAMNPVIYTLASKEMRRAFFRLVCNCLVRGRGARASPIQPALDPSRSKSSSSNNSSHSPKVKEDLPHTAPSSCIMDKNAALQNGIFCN
row,Compound,EC50 [µM]
1,CCCc1cc(C(=O)N(C2CCCCC2)C2CCCCC2)no1 [MLS000116372],2.7
2,Cc1cc(C(=O)N(C2CCCCC2)C2CCCCC2)no1 [MLS000087301],25.6
3,"Cc1cc(C)nc(-n2nc(C)c(Sc3ccc(F)cc3)c2N)n1 [2-(4,6-dimethyl-2-pyrimidinyl)-4-[(4-fluorophenyl)thio]-5-methyl-3-pyrazolamine]",2.34
4,"CCCCC(=O)NC(Nc1nc(C2CC2)cs1)(C(=O)OCC)C(F)(F)F (stereo unspecified) [2-[(4-cyclopropyl-2-thiazolyl)amino]-3,3,3-trifluoro-2-(1-oxopentylamino)propanoic acid ethyl ester]",9.87
5,"c1ccc(-c2nnc(N3CCOCC3)nc2-c2ccccc2)cc1 [4-(5,6-diphenyl-1,2,4-triazin-3-yl)morpholine]",6.63
6,"O=C(OCCN1C(=O)c2ccccc2C1=O)c1cccc(OC(F)F)c1 [2-(1,3-dioxoisoindol-2-yl)ethyl 3-(difluoromethoxy)benzoate]",> 45
7,"Cc1cc(C)n(-c2nc(NCCCO)c3c4c(sc3n2)CCCC4)n1 [3-[[2-(3,5-dimethyl-1-pyrazolyl)-5,6,7,8-tetrahydro-[1]benzothiolo[2,3-d]pyrimidin-4-yl]amino]-1-propanol]",4.28
8,CCCN(CCC)CCCNC(=O)CC1Nc2ccccc2NC1=O (stereo unspecified) [MLS000046817],> 45
9,CC(=O)Oc1ccc2cc(-c3nc4ccccc4n3C)c(=O)oc2c1,6.42
10,Clc1ccc2nc(N3CCNCC3)nc(-c3ccccc3)c2c1,> 45
11,Cc1cc(C)n(-c2nc(NCCO)c3c4c(sc3n2)CCCC4)n1 [SMR000046729],6.69
12,"CCC(C)NC(=O)c1c(N)n(Cc2ccc3c(c2)OCO3)c2nc3ccccc3nc12 (stereo unspecified) [2-amino-1-(1,3-benzodioxol-5-ylmethyl)-N-butan-2-ylpyrrolo[3,2-b]quinoxaline-3-carboxamide]",7.93
13,"Nc1c(C(=O)NCc2ccco2)c2nc3ccccc3nc2n1CCN1CCCCC1 [2-amino-N-(2-furanylmethyl)-1-[2-(1-piperidinyl)ethyl]-3-pyrrolo[3,2-b]quinoxalinecarboxamide]",> 45
14,C=CCn1c(=O)c(C#N)cc2c(=O)n3ccccc3nc21 [SMR000029848],> 45

# Same assay, conditions: inactive by the depositor's call
row,Compound,EC50 [µM]
1,"CCCCCCn1c(N)c(C(=O)NCCN2CCOCC2)c2nc3ccccc3nc21 [2-amino-1-hexyl-N-(2-morpholin-4-ylethyl)pyrrolo[3,2-b]quinoxaline-3-carboxamide]",42.3
2,"COc1ccc(Cn2c(N)c(C(=O)NCc3ccco3)c3nc4ccccc4nc32)cc1 [2-amino-N-(2-furanylmethyl)-1-[(4-methoxyphenyl)methyl]-3-pyrrolo[3,2-b]quinoxalinecarboxamide]",19.8
3,"CCSc1nc(N2CCOCC2)c2c(c1C#N)CCCC2 [3-(ethylthio)-1-(4-morpholinyl)-5,6,7,8-tetrahydroisoquinoline-4-carbonitrile]",14.5
4,N=c1c(C(=O)NCc2ccco2)cc2c(=O)n3ccccc3nc2n1Cc1ccc(Cl)cc1 [SMR000047818],63.9
5,COCCCn1c(N)c(C(=O)NCCC(C)C)c2nc3ccccc3nc21 [MLS000041744],31.4
6,CC(C)Cn1c(N)c(C(=O)NCc2cccs2)c2nc3ccccc3nc21 [SMR000043082],29.7
7,"Cc1ccc(C(C)C)c(OCc2nc(-c3nonc3N)no2)c1 [4-[5-[(5-methyl-2-propan-2-yl-phenoxy)methyl]-1,2,4-oxadiazol-3-yl]-1,2,5-oxadiazol-3-amine]",74.6
8,O=C(NC1=NCCS1)c1cc(-c2ccccc2)nn1-c1ccccc1,41.7
9,"CCCn1c(=O)c2ccccc2n2c(SCc3c(C(=O)OCC)oc4ccccc34)nnc12 [3-[[(5-keto-4-propyl-[1,2,4]triazolo[4,3-a]quinazolin-1-yl)thio]methyl]coumarilic acid ethyl ester]",23.5
10,OCCN1CCN(c2nc(-c3ccccc3)c3cc(Cl)ccc3n2)CC1 [2-[4-(6-chloranyl-4-phenyl-quinazolin-2-yl)piperazin-1-yl]ethanol],108
11,Cc1cccc2cc3c(NC(=O)c4ccccn4)nn(C)c3nc12 [MLS000082760],127
12,"COCCNc1nc(-n2nc(C)cc2C)nc2sc3c(c12)CCCC3 [2-(3,5-dimethyl-1-pyrazolyl)-N-(2-methoxyethyl)-5,6,7,8-tetrahydro-[1]benzothiolo[2,3-d]pyrimidin-4-amine]",13.3
